The values that follow come from patent US20090088441A1, “Quinoline Compounds” (priority 2007, published 2009).

For assay [1], the target named is T1, GABABR1a/GABABR2 heterodimer (Homo sapiens, UniProt O75899+Q9UBS5).
T1 construct: expressed in transfected cells; membrane preparation
Description: GTPγS35 radioligand filtration-binding assay for determination of agonist potency. The note with it: membranes of CHO K1 Flp-In cells expressing GABABR1a/GABABR2; 30° C., 1 hour. The format is biochemical. As for the experimental part: (§1) The potency and efficacy of the compounds acting as agonists at the GABAB receptor was also determined in a automated GTPγS^35 radioligand filtration-binding assay.
(§2) The GABAB receptor is a G-protein coupled receptor. Binding of a ligand activates the receptor leading to recruitment of G-protein and a substitution of the G-protein bound GDP to GTP. The G-protein becomes active. The G-protein is inactivated by hydrolysis of GTP to GDP. G-proteins are membrane bound and therefore present in membrane preparations.
(§3) In the GTPγS^35 assay, GTP is not present but instead GTPγS^35 where one of the phosphate groups are substituted to a sulphur group which cannot be hydrolysed. Upon activation of the receptor, radiolabelled GTPγS^35 replaces the GDP. The complex cannot be inactivated and the radiolabelled complex is accumulating. At the end of the assay, the reaction mixture is filtered through a membrane-binding filter. Excess GTPγS^35 is removed by washing and the membrane bound S^35, which correlates to the degree of receptor activation, is measured with a β-Liquid Scintillation Counter.
The human GABABR1a was subcloned into pIRESneo3 (Clontech) using GABABR1a construct as a template (refseqN NM001470). GABABR2 was subcloned into pcDNA5/FRT (Invitrogen) using GABABR2 construct as a template (refseqN NM005458). The Kozak sequence GCCACC was introduced before the start codon in both constructs.
For generation of stable cell lines, CHO K1 Flp-In cells (Invitrogen) were grown in DMEM/F12 1:1 media supplemented with 10% FBS at 37° C. in a humidified CO2-incubator. The cells were detached with Accutase and 1.5 million cells were seeded into T75 flasks. After 24 h, transfection of the cells were performed with the GABABR2 construct. For generation of cell lines expressing GABABR2, GABABR2 plasmid (1 μg) and pOG44 from Invitrogen (9 μg) were mixed with 30 μl Lipofectamine 2000 in 600 μl OptiMEM for 20 minutes. The cells were exposed to transfection medium for 5 hours and was then replaced with culture medium. After 2 days 0.5 mg/ml Hygromycin were added to culture medium. The cells were cultured for an additional 10 days to establish a stable cell mix expressing GABABR2. For generation of a cell line expressing the GABABR1a/GABABR2 hetrodimer, GABABR1a plasmid DNA (8 μg) and Lipofectamine (30 μl) were mixed in 600 μl OptiMEM and incubated for 20 minutes before added to CHO-Flp-In cells expressing GABABR2. After 2 days additional selection agent was added (0.8 mg/ml Geneticin). The cells were cultured for another 10 days to generate a stable mixed population expressing the GABABR1a/GABABR2 heterodimer. The cell line was analyzed by GTPγS^35 assay with GABA as agonist.
GTPγS^35 radioligand filtration-binding assays were performed using an automated workstation at 30° C. for 1 hour in assay buffer (50 mM HEPES, 40 mM NaCl, 1 mM MgCl2×6H2O, 30 μg/mL Saponin, pH 7.4 at RT) containing 0.025 μg/μL of membrane protein (prepared from the cell line described above), 10 μM GDP and 0.55 nCi/μL GTPγS^35 in a final volume of 60 μL. The reaction was started by the addition of compounds (GABA was always included as a positive control), start concentration 100 μM dilution factor 3. The reaction was terminated and membranes collected by addition of ice-cold wash buffer (50 mM Tris-HCl, 5 mM MgCl2×6H2O, 50 mM NaCl, pH 7.4 at 4° C.) followed by rapid filtration under vacuum through a MultiScreen HTS 384 FB filter plate. Repeated washing of the filters with ice-cold wash buffer washed the unbound radioligand away. The filter plates were dried for 1½-2 hours at 50° C., then 8 μL scintillation liquid was added per well followed by incubation at RT for at least 20 minutes before bound radioactivity was determined using a β-Liquid Scintillation Counter (1450 Microbeta Trilux, Wallac, Finland)
100% activation (max) is calculated as the mean value for wells containing 1 mM GABA. […]

For assay [2], the target named is T2, GABAB(1A,2) receptor heterodimer (Homo sapiens, UniProt O75899+Q9UBS5).
T2 construct: expressed in transfected cells; membrane preparation
Description: GTPγS35 radioligand filtration-binding assay for determination of PAM potency. Format: biochemical. The note with it: membranes of CHO-K1 cells expressing GABABR1a/GABABR2; GABA dose-response with 10, 1, 0.1 and 0.01 μM PAM; concentration reducing GABA's EC50 by 50%; read-out: Mean (EC50 derived) PAM EC50. On the procedure:
The effect of GABA in an automated GTPγS^35 radioligand filtration-binding assay in CHO cells expressing the GABAB(1A,2) receptor heterodimer was studied in the presence or absence of the positive allosteric modulator test compounds.
as §1, §2, §3
GABABR1a and GABABR2 were cloned from human brain cDNA and subcloned into pCI-Neo (Promega) and pALTER-1 (Promega), respectively.
In order to optimise the Kozak consensus sequence of GABABR2, in situ mutagenesis was performed using the Altered Sites Mutagenesis kit according to manufacturer's instruction (Promega) with the following primer, 5′-[…]-3′. The optimised GABABR2 was then restricted from pALTER-1 with Xho I+Kpn I and subcloned into the mammalian expression vector pcDNA3.1 (−)/Zeo (Invitrogen) to produce the final construct, pcDNA3.1 (−)/Zeo-GABABR2.
For generation of stable cell lines, CHO-K1 cells were grown in Nut mix F-12 (Ham) media supplemented with 10% FBS, 100 U/ml Penicillin and 100 μg/ml Streptomycin at 37° C. in a humidified CO2-incubator. The cells were detached with 1 mM EDTA in PBS and 1 million cells were seeded in 100 mm petri dishes. After 24 hours the culture media was replaced with OptiMEM and incubated for 1 hour in a CO2-incubator.
For generation of a cell line expressing the GABABR1a/GABABR2 heterodimer, GABABR1a plasmid DNA ([…]) GABABR2 plasmid DNA (4 μg) and lipofectamine (24 μl) were mixed in 5 ml OptiMEM and incubated for 45 minutes at room temperature. […] After expansion, the GABAB receptor functional response was tested by measuring the GABAB receptor dependent release of intracellular calcium in a fluorescence imaging plate reader (FLIPR). […]

Molecules are shown by their SMILES.

T1 sequence (Q9UBS5 15-961 limits assumed): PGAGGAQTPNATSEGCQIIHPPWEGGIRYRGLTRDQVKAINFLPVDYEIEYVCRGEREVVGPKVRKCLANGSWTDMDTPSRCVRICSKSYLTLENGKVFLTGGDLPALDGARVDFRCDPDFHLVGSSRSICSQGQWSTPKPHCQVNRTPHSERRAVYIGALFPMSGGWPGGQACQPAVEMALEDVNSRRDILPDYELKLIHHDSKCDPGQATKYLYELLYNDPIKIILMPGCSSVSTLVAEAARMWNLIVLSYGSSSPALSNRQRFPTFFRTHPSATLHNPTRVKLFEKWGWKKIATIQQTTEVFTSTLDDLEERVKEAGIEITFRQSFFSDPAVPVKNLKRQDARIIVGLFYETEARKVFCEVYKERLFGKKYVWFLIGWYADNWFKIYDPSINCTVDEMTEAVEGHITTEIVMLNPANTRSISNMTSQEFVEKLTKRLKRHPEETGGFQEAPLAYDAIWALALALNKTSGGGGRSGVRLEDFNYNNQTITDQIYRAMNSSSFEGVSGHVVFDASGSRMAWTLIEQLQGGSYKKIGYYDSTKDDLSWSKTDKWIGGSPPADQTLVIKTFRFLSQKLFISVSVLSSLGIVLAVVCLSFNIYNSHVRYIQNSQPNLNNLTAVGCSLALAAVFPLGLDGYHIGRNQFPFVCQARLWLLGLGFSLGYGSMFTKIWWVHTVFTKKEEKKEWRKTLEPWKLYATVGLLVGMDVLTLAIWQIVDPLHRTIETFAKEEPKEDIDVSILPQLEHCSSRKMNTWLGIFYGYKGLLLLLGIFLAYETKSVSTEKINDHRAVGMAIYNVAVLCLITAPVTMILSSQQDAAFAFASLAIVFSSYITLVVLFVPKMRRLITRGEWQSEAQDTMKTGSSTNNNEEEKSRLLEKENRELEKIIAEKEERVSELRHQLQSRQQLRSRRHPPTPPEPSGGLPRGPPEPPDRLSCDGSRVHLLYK
T1 sequence (O75899 42-941): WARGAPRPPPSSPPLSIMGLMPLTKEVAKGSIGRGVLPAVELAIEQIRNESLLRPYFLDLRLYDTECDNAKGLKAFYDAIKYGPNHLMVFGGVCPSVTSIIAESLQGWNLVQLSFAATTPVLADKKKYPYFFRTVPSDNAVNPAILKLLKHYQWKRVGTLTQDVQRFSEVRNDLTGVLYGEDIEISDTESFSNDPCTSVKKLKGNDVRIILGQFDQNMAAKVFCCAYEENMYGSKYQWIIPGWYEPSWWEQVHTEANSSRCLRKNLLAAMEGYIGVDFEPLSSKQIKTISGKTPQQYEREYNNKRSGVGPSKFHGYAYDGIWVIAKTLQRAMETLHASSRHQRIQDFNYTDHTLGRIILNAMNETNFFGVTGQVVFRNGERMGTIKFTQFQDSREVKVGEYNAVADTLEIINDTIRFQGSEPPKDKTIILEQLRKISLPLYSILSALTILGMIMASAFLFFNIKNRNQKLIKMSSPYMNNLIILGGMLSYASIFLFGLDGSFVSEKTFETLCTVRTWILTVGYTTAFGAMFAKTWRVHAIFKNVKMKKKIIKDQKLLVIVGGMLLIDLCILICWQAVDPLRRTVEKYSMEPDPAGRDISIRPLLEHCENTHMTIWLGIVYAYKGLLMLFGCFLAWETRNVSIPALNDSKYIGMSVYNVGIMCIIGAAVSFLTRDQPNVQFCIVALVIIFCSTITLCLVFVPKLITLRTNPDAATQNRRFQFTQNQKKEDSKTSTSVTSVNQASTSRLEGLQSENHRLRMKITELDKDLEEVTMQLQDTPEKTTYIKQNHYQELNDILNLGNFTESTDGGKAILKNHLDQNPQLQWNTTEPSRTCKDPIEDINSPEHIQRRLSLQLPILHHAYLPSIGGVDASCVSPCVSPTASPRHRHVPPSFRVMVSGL
T2 sequence (Q9UBS5 15-961 limits assumed): as the sequence (Q9UBS5 15-961 limits assumed) above
T2 sequence (O75899 42-941): as the sequence (O75899 42-941) above

Broadly, the EC50 is the concentration needed to bring the measured effect to its halfway point. Consider `Cc1nc2ccc(N3CCCCC3)cc2c(-c2ccc(F)cc2)c1C(=O)OC(C)(C)C` [Example 22, tert-butyl 4-(4-fluorophenyl)-2-methyl-6-piperidin-1-ylquinoline-3-carboxylate], for which the concentration for a half-maximal effect (EC50) worked out at 1.3 µM in assay [1] and 18 µM in assay [2]. As to `Cc1nc2ccc(Br)cc2c(-c2ccc(F)cc2)c1C(=O)OC(C)(C)C` [Example 20, tert-butyl 6-bromo-4-(4-fluorophenyl)-2-methylquinoline-3-carboxylate], the EC50 in assay [2] was 3.1 µM. `Cc1nc2ccc(N3CCCCC3)cc2c(-c2ccc(F)cc2)c1C(C)Oc1ccc(Cl)cc1` (centres unmarked) [Example 4, 3-[1-(4-chlorophenoxy)ethyl]-4-(4-fluorophenyl)-2-methyl-6-piperidin-1-ylquinoline]: the concentration for a half-maximal effect (EC50) in assay [1] was determined as 1 µM; in assay [2], 24 µM.

In the case of `Cc1nc2ccc(Br)cc2c(-c2ccc(F)cc2)c1C(C)Oc1ccc(Cl)cc1` (centres unmarked) [Example 2, 6-bromo-3-[1-(4-chlorophenoxy)ethyl]-4-(4-fluorophenyl)-2-methylquinoline], the EC50 in assay [1] came out at 6.5 µM; in assay [2], 9.2 µM. The compound `Cc1nc2ccc(N3CCCCC3)cc2c(-c2ccc(F)cc2)c1C(C)Oc1ccc(S(C)(=O)=O)cc1` (centres unmarked) [Example 8, 4-(4-fluorophenyl)-2-methyl-3-{1-[4-(methylsulfonyl)phenoxy]ethyl}-6-piperidin-1-ylquinoline] returned an EC50 in assay [1] of 1.7 µM.
